ChEMBL document CHEMBL5260832, “Hepatoprotective natural triterpenoids” (Eur J Med Chem, 2018)
pIC50: −log10 of the molar value.

What was measured:
[1] = system: Hepatocyte; assay: Hepatoprotective activity against CCL4-induced rat hepatocyte toxicity assessed as decrease in GOT level at 3.33 mg/mL preincubated for 30 mins followed by CCL4 addition and measured after 180 mins by colorimetric method; assay type: functional; details: time 210.0 min
[2] = system: Mus musculus; assay: Hepatoprotective activity against D-GaIN/LPS induced liver injury mouse model assessed as reduction in AST at 100 mg/kg, ip relative to control; assay type: functional; parameters: scale not given: the % may be the effect or the level left
[3] = system: Mus musculus; assay: Hepatoprotective activity against CCl4-induced liver injury mouse model assessed as reduction in AST at 20 ug/mL, ip relative to control (reference value: 9.27 IU/L); assay type: functional; details: dose 20.0 µg/ml
[4] = system: Mus musculus; assay: Hepatoprotective activity against CCl4-induced liver injury mouse model assessed as reduction in MDA level at 20 ug/mL, ip relative to control (reference value: 9.27 IU/L); assay type: functional; details: dose 20.0 µg/ml
[5] = system: Mus musculus; assay: Hepatoprotective activity against CCl4-induced liver injury mouse model assessed as increase in SOD level at 20 ug/mL, ip relative to control (reference value: 5.89 IU/L); assay type: functional; details: dose 20.0 µg/ml
[6] = system: Mus musculus; assay: Hepatoprotective activity against CCl4-induced liver injury mouse model assessed as reduction in ALT at 20 ug/mL, ip relative to control (reference value: 13.23 IU/L); assay type: functional; details: dose 20.0 µg/ml
[7] = system: Huh-7; assay: Hepatoprotective activity against CCL4-induced mouse model in human Huh-7 cells assessed as decrease in ALT level at 100 ug/mL; assay type: functional; details: dose 100.0 µg/ml
[8] = system: Hepatocyte; assay: Hepatoprotective activity against CCL4-induced rat hepatocyte toxicity assessed as decrease in GPT level at 3.33 mg/mL preincubated for 30 mins followed by CCL4 addition and measured after 180 mins by colorimetric method; assay type: functional; details: time 210.0 min
[9] = system: Mus musculus; assay: Hepatoprotective activity against D-GaIN/LPS induced liver injury mouse model assessed as reduction in ALT at 100 mg/kg, ip relative to control; assay type: functional; parameters: scale not given: the % may be the effect or the level left
[10] = system: Hepatocyte; assay: Hepatoprotective activity against CCL4-induced rat hepatocyte toxicity assessed as decrease in ALP level at 3.33 mg/mL preincubated for 30 mins followed by CCL4 addition and measured after 180 mins by colorimetric method; assay type: functional; details: time 210.0 min
[11] = system: Mus musculus; assay: Hepatoprotective activity against D-GaIN/LPS induced liver injury mouse model assessed as reduction in LDH level at 100 mg/kg, ip relative to control; assay type: functional; parameters: scale not given: the % may be the effect or the level left
[12] = organism: Mus musculus; assay: Protection against D-GaIN/TNFalpha induced cell death in mouse liver parenchymal cells assessed as reduction in GPT level measured after 2 hrs; assay type: functional, cell-based
[13] = Hepatotoxicity in D-GaIN induced Wistar rat assessed as change in induction of TAT level for 10 days relative to control; assay type: toxicity; parameters: concentration or dose not given beside the values; details: in vivo, 240 h, time 10 day
[14] = Hepatotoxicity in D-GaIN induced Wistar rat assessed as change in GTP leakage level for 10 days relative to control; assay type: toxicity; details: in vivo, 240 h, time 10 day
[15] = Hepatotoxicity in acetaminophen-induced Wistar rat assessed as reduction in liver damage by measuring histological score at 50 to 100 mg/kg (reference value: 4.83); assay type: toxicity, organism-based; details: in vivo, dose 50-100 mg/kg
[16] = organism: Mus musculus; assay: Hepatoprotective activity against D-galactosamine-induced liver injury mouse model assessed as […] leakage at 50 ug/ml; assay type: functional; details: dose 50 µg/ml
[17] = system: HepG2; assay: Cytoprotective activity against t-BHP induced cell death in human HepG2 cells assessed as cell survival rate at 5 uM relative to control; assay type: functional
[18] = system: HepG2; assay: Hepatoprotective activity against H2O2-induced human HepG2 cells assessed as increase in AST level at 186.00 uM; assay type: functional
[19] = system: HepG2; assay: Hepatoprotective activity against H2O2-induced human HepG2 cells assessed as increase in ALT level; assay type: functional
[20] = system: Mus musculus; assay: Hepatoprotective activity against CCl4-induced mouse acute liver injury model assessed as decreased sGOT level at 15 mg/kg, ip relative to control; assay type: functional; parameters: scale not given: the % may be the effect or the level left
[21] = system: Mus musculus; assay: Hepatoprotective activity against CCl4-induced mouse acute liver injury model assessed as decreased LDH level at 15 mg/kg, ip relative to control; assay type: functional; parameters: scale not given: the % may be the effect or the level left
[22] = system: Mus musculus; assay: Hepatoprotective activity against CCl4-induced mouse chronic liver injury model assessed as decreased sGOT level at 15 mg/kg, ip relative to control; assay type: functional; parameters: scale not given: the % may be the effect or the level left
[23] = system: Mus musculus; assay: Hepatoprotective activity against CCl4-induced mouse chronic liver injury model assessed as decreased LDH level at 15 mg/kg, ip relative to control; assay type: functional; parameters: scale not given: the % may be the effect or the level left
[24] = system: Mus musculus; assay: Hepatoprotective activity against CCl4-induced mouse acute liver injury model assessed as decreased sGPT level at 15 mg/kg, ip relative to control; assay type: functional; parameters: scale not given: the % may be the effect or the level left
[25] = system: Mus musculus; assay: Hepatoprotective activity against CCl4-induced mouse chronic liver injury model assessed as decreased sGPT level at 15 mg/kg, ip relative to control; assay type: functional; parameters: scale not given: the % may be the effect or the level left
[26] = system: Mus musculus; assay: Hepatoprotective activity against CCl4-induced mouse acute liver injury model assessed as decreased AP level at 15 mg/kg, ip relative to control; assay type: functional; parameters: scale not given: the % may be the effect or the level left
[27] = system: Mus musculus; assay: Hepatoprotective activity against CCl4-induced mouse chronic liver injury model assessed as decreased AP level at 15 mg/kg, ip relative to control; assay type: functional; parameters: scale not given: the % may be the effect or the level left
[28] = system: Hepatocyte; assay: Hepatoprotective activity against CCL4-induced rat hepatocyte toxicity assessed as decrease in IL-1beta level at 0.1 mg/mL relative to control; assay type: functional; parameters: scale not given: the % may be the effect or the level left
[29] = system: HepG2; assay: Hepatoprotective activity against H2O2-induced cell death in human HepG2 cells assessed as reduction in ALT level at 74.60 uM preincubated for 1 hr followed by H2O2-stimulation and measured after 24 hrs; assay type: functional; details: dose 74.6 µM
[30] = system: HepG2; assay: Hepatoprotective activity against H2O2-induced cell death in human HepG2 cells assessed as reduction in AST level at 74.60 uM preincubated for 1 hr followed by H2O2-stimulation and measured after 24 hrs; assay type: functional; details: dose 74.6 µM
[31] = system: HepG2; assay: Hepatoprotective activity against H2O2-induced cell death in human HepG2 cells assessed as reduction in AST level at 18.65 uM preincubated for 1 hr followed by H2O2-stimulation and measured after 24 hrs; assay type: functional

## SILYMARIN
[1]
  Activity: 18.5 IU/L
[2]
  Activity: 66%
[3]
  Activity: 4.24 IU/L
[4]
  Activity: 3.84 nmol/mL
[5]
  Activity: 21.7 U/ml
[6]
  Activity: 4.82 U/ml
[7]
  Activity: 10.2 U/ml
[8]
  Activity: 11.3 IU/L
[9]
  Activity: 68%
[10]
  Activity: 13.7 IU/L
[11]
  Activity: 43%

## CC(=O)OC[C@H]1O[C@@H](O[C@H]2C[C@]3(C)[C@H](C[C@@H](O)[C@@H]4[C@@H]([C@]5(C)CC[C@@H](C(C)(C)O)O5)CC[C@]43C)[C@@]3(C)CC[C@H](O)C(C)(C)[C@H]23)[C@H](O[C@@H]2O[C@@H](C)[C@H](O)[C@@H](O)[C@H]2O)[C@@H](O)[C@@H]1O
[12]
  pIC50: 4.33

## CC1(C)CC[C@]2(C)CC[C@]3(C)C(=CC[C@@H]4[C@@]5(C)CC[C@H](O)C(C)(C)[C@@H]5CC[C@]43C)[C@@H]2C1 [beta-AMYRIN]
[13]
  Activity: 40%
[14]
  Activity: 49.4%
[15]
  Activity: 2.17
[16]
  Activity: 17.3%

## CC(C(=O)O)[C@H]1CC[C@@]2(C)[C@@H]3C(=O)C=C4[C@@H](CC[C@@H](O)C4(C)C)[C@]3(C)CC[C@]12C (stereo partly specified)
[17]
  Activity: 55.2%

## C/C(=C\CC[C@@H](C)[C@H]1CC[C@@]2(C)C3=C(CC[C@]12C)[C@@]1(C)CC[C@H](O)C(C)(C)[C@@H]1CC3=O)C(=O)O
[18]
  Activity: 24.27 U/L
[19]
  Activity: 20.95 U/L

## CC1(C)CC[C@]2(C)CC[C@]3(C)C(=CC[C@@H]4[C@@]5(C)CCC(=O)C(C)(C)[C@@H]5C(O)C[C@]43C)[C@@H]2C1 (stereo partly specified)
[20]
  Activity: 51.3%
[21]
  Activity: 45%
[22]
  Activity: 38.8%
[23]
  Activity: 24.8%
[24]
  Activity: 45.3%
[25]
  Activity: 36.4%
[26]
  Activity: 40.6%
[27]
  Activity: 55.3%

## C[C@H]1O[C@@H](O[C@H]2CC[C@@]3(C)[C@@H](CC[C@]4(C)[C@@H]3C=C[C@]35OC[C@@]6(CCC(C)(C)C[C@H]63)[C@@H](O)C[C@]54C)[C@]2(C)CO)[C@H](O[C@@H]2O[C@H](CO)[C@@H](O)[C@H](O)[C@H]2O)[C@@H](O[C@@H]2O[C@H](CO)[C@@H](O)[C@H](O)[C@H]2O)[C@H]1O [BUDDLEJASAPONIN IV]
[28]
  Activity: 74.96%

## C=C(C)[C@@H]1C[C@H](O)C2=C(C(=O)C[C@]3(C)[C@@H]([C@H](C)CCC(=O)OC)CC[C@@]23C)[C@@]1(C)CCC(=O)O
[29]
  Activity: 7.22 U/L
[30]
  Activity: 10.53 U/L
[31]
  Activity: 19.56 U/L
